For one test, the target named is PCIF1 (Homo sapiens, UniProt Q9H4Z3). Format: biochemical.
A further test addresses Dnmt3a-Dnmt3L (Mus musculus, UniProt O88508). It is filed as biochemical.
A further test has as its target EZH2 complex (Homo sapiens, UniProt Q15910). Nature of the test: Selectivity assay, EZH2 complex. As to conditions: compound 10 μM, 3H-SAM 1 μM. It is filed as biochemical.
Another test has as its target MettL3-MettL14 (Homo sapiens, UniProt Q86U44). Nature of the test: Selectivity assay, MettL3-MettL14. As to conditions: [I] = 10 μM, [SAM] = 20 μM, 5 mM NaCl, or CamA conditions. It is filed as biochemical.
Test [1] concerns the target T1, A1 adenosine receptor (A1AR) (Homo sapiens, UniProt P30542).
T1 sequence (P30542 1-326): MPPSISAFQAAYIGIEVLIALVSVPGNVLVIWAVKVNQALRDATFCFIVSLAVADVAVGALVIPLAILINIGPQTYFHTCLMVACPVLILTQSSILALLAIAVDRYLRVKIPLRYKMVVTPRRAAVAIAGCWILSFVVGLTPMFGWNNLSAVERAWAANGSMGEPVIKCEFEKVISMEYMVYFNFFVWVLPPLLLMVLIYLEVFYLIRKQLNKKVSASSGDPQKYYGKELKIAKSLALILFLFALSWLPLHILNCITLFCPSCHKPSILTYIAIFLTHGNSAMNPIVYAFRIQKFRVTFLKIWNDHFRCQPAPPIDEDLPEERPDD
Nature of the test: A1AR agonist radioligand binding assay. The note with it: compound 10 μM, [3H]CCPA 1 nM, transfected CHO cell membranes.

Another test deals with DNMT1 (Homo sapiens, UniProt P26358). Nature of the test: Selectivity assay, DNMT1. It is filed as biochemical. The note with it: [I] = 10 μM, [SAM] = 5.5 μM, 37 °C.
DNMT1, sequence (P26358 351-1600): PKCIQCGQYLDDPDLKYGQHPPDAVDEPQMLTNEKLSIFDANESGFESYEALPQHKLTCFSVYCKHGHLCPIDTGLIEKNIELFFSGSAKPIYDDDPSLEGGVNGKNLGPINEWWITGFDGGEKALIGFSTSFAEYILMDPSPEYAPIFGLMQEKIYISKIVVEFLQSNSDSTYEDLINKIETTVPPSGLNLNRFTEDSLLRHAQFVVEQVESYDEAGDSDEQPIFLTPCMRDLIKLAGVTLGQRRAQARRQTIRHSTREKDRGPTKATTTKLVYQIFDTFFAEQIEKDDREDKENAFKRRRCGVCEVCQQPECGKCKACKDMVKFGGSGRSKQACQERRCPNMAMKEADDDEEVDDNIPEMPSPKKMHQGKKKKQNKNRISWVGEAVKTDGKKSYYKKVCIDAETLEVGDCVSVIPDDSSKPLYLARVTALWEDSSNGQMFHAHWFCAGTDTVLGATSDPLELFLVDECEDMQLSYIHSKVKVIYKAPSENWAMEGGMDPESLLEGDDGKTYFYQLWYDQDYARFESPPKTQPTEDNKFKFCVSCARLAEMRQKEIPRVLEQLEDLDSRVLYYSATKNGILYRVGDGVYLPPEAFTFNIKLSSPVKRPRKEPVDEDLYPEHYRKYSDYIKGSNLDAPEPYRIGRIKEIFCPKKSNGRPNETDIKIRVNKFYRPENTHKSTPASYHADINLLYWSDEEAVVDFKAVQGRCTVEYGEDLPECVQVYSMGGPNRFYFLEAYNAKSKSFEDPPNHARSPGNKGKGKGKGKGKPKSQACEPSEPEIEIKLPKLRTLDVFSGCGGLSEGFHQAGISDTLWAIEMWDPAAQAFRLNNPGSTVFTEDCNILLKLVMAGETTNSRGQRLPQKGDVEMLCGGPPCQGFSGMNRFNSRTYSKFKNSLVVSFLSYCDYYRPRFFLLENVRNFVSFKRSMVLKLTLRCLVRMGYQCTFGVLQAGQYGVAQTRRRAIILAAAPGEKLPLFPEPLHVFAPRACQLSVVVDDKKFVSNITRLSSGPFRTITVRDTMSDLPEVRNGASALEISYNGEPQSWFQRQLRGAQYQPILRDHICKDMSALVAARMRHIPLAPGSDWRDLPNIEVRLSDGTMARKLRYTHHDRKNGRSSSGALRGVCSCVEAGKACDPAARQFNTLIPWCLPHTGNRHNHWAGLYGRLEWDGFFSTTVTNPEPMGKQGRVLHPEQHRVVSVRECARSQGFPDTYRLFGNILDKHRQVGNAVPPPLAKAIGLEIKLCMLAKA

MettL3-MettL14, sequence (Q86U44 whole entry): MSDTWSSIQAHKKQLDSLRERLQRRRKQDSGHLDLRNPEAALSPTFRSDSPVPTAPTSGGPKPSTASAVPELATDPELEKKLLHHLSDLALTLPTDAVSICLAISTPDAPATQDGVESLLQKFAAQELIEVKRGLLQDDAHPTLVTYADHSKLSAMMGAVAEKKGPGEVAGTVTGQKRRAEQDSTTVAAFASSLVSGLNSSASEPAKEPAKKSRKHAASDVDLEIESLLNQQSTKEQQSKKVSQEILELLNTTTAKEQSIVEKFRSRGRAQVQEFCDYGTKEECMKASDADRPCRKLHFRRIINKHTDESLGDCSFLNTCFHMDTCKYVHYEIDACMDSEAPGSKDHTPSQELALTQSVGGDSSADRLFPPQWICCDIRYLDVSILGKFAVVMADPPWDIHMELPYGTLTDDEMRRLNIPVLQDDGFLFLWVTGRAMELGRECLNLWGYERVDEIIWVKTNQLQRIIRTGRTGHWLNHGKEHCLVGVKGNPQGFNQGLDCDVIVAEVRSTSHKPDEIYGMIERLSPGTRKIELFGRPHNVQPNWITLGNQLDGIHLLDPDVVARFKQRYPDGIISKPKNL
MettL3-MettL14, sequence (Q9HCE5 whole entry partner): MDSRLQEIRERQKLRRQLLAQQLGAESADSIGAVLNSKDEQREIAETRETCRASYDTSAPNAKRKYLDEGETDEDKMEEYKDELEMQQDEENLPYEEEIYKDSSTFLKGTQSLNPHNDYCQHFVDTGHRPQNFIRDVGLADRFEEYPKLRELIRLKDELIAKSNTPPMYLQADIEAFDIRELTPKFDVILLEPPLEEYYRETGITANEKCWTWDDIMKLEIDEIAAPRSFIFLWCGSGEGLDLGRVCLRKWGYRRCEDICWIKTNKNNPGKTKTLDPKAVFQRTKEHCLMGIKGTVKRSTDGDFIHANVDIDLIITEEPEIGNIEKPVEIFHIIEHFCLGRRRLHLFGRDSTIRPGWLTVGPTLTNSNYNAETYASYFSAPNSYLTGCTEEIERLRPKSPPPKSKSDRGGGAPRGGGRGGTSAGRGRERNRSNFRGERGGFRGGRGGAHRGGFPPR
PCIF1, sequence (Q9H4Z3 whole entry): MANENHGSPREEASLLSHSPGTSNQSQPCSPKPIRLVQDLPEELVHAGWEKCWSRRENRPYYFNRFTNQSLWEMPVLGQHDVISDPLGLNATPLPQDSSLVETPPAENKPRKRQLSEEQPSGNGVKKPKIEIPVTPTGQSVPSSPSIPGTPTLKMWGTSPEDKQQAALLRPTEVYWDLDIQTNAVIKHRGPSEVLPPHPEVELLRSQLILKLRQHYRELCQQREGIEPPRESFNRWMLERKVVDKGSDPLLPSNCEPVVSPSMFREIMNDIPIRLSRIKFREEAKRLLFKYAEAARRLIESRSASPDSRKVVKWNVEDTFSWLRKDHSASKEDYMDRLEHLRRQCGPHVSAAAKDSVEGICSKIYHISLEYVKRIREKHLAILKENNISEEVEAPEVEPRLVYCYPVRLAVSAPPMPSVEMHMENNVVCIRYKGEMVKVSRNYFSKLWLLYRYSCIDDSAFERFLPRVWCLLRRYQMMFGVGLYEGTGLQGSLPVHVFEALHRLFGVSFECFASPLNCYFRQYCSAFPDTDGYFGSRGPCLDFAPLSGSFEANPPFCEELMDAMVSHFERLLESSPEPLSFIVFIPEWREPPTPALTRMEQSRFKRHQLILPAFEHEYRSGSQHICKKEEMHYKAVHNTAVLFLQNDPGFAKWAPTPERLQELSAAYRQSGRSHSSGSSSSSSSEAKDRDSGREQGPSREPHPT

Regarding `OC[C@H]1O[C@@H](n2cnc3c(NCCCc4ccc(O)cc4)ncnc32)[C@H](O)[C@@H]1O` [Compound 16, (2R,3S,4R,5R)-2-(Hydroxymethyl)-5-(6-((3-(4-hydroxyphenyl)propyl)amino)-9H-purin-9-yl)tetrahydrofuran-3,4-diol], the “inhibition of PCIF1” value on PCIF1 is recorded as “none of them showed any significant inhibition”. Moreover, the “inhibition of Dnmt3a-Dnmt3L” value on Dnmt3a-Dnmt3L is recorded as “none of them showed any significant inhibition”. In addition, the “inhibition of EZH2 complex” value on EZH2 complex was “none of them showed any significant inhibition”. Further, the “inhibition of MettL3-MettL14” value against MettL3-MettL14 is “none of them showed any significant inhibition”. Moreover, the “inhibition of control radioligand specific binding, A1AR” value in test [1] is recorded as “minimal inhibition of specific binding”. For the same molecule, the “inhibition of DNMT1” value at DNMT1 is on record as “none of them showed any significant inhibition”.
In the case of `CC(C)(C)OC(=O)N1CCC(CCCNc2ncnc3c2ncn3[C@@H]2O[C@H](CO)[C@@H](O)[C@H]2O)CC1` [Compound 39, tert-Butyl-4-(3-((9-((2R,3R,4S,5R)-3,4-dihydroxy-5-(hydroxymethyl)tetrahydrofuran-2-yl)-9H-purin-6-yl)amino)propyl)piperidine-1-carboxylate], the “inhibition of PCIF1” value against PCIF1 was “none of them showed any significant inhibition”. Besides, on Dnmt3a-Dnmt3L, the “inhibition of Dnmt3a-Dnmt3L” value is listed as “none of them showed any significant inhibition”. For the same molecule, at EZH2 complex, the “inhibition of EZH2 complex” value is given as “none of them showed any significant inhibition”. Further, the “inhibition of MettL3-MettL14” value on MettL3-MettL14 is listed as “none of them showed any significant inhibition”. For the same molecule, the “inhibition of control radioligand specific binding, A1AR” value in test [1] is reported as “minimal inhibition of specific binding”. Besides, the “inhibition of DNMT1” value against DNMT1 is “none of them showed any significant inhibition”.

For the origin of these results see paper PMC9841527 (Journal of Medicinal Chemistry, 2022).
